Laboratory results taken from patent US9617261B2, “Substituted pyridinone compounds as MEK inhibitors” (The Asan Foundation, priority 2013, dated 2017).

Columns and labels:
Mek1 = Mek1 (Homo sapiens (Human), UniProt Q02750); assay: Mek1 kinase assay (LANCE); type: biochemical; settings: Mek1 0.5 nM, 50 μM ATP, 90 min at 23° C.; read-out: IC50 Enzymatic assay
Description: The LANCE Ultra assay kit was purchased from PerkinElmer. The ULight™-MBP peptide, Europium labeled Antibody and LANCE Detection buffer were purchased from PerkinElmer. The APT and dimethylsulfoxide were purchased from Sigma-Aldrich. The 5× Kinase buffer were purchased from Invitrogen.
A Mek1 kinase assay (LANCE, PerkinElmer) was developed for supporting compound profiling and lead optimization. […] Then the phosphorylated Erk1 was able to phosphorylate ULight™-MBP peptide (PerkinElmer). The phosphorylated peptide was detected by Europium-anti-phospho-MBP (PerkinElmer). […] After quenching the reaction with […], 2 nM Europium-anti-phospho-MBP was added to the reaction mixture and incubated for 60 min, followed by a detection using EnVision Multilabel Plate Reader (PerkinElmer). The IC50 values were derived through a curve fitting using GraphPad Prism5.

[1] = tested on: COLO205 cell line (Colon cancer); assay: Cell viability assay (CellTiter-Glo), COLO205; settings: Homo sapiens, COLO 205; COLO205, 72 hours; read-out: IC50 Cell-based assay (COLO205)
Protocol: (§1) The CellTiter-Glo® assay was purchased from Promega. All the reagents and plates for cell culture were purchased Invitrogen Life Technology and Nunc, respectively.
(§2) To investigate whether a compound is able to inhibit the activity of MEK in cells, a mechanism-based assay using COLO205 cell line (Colon cancer) and M14 cell line (Melanoma) were developed. COLO205 cells and M14 cells were cultured in a tissue culture flask to 80% confluence in RPMI1640 plus 10% fetal bovine serum. Cells were collected and plated onto 96 well culture plates at 2×10^2 cells/well. Plates were incubated overnight at 37° C. in a 5% CO2 incubator to allow cells to adhere. Various concentrations of MEK inhibitors were added to the plates and incubated at 37° C. for 72 hours. After 72 hours, 20 μl of CellTiter-Glo® reagent was added to each well. Mix by orbital shaking for 2 min, then incubates at room temperature for 15 min. Cell lysate were transferred into a 96 well white plate (Thermo). Plates were read out by EnVision Multilabel Plate Reader. The data were analyzed using GraphPad Prism5.

M14 cell line (Melanoma) = assay: Cell viability assay (CellTiter-Glo), M14; settings: Homo sapiens; M14, 72 hours; read-out: IC50 Cell-based assay (M14)
Protocol: as §1, §2

[2] = Example 3 toxicity study by oral administration for 8 days; type: in vivo, Sprague-Dawley rats; settings: for Body weight: escalating 5-320 mg/kg over 8 days
Protocol: To evaluate the potential toxicity, test article, Example 3, was administered orally for 8 days to Sprague-Dawley rats.
Male and female Sprague-Dawley rats, 6 weeks of age at onset of the study, were assigned to 2 experimental groups as follow: (1) 2 male rats treated 5, 5, 10, 20, 40, 80, 160, 320 mg/kg each day with doses escalating for 8 days (2) 2 female rats treated 5, 5, 10, 20, 40, 80, 160, 320 mg/kg each day with doses escalating for 8 days. Each article was in vehicle (Captisol).
Body weight was measured on a daily basis to determine toxicity. All groups were sacrificed at 9th day.

Sequence of Mek1 (Q02750 whole entry, species assumed): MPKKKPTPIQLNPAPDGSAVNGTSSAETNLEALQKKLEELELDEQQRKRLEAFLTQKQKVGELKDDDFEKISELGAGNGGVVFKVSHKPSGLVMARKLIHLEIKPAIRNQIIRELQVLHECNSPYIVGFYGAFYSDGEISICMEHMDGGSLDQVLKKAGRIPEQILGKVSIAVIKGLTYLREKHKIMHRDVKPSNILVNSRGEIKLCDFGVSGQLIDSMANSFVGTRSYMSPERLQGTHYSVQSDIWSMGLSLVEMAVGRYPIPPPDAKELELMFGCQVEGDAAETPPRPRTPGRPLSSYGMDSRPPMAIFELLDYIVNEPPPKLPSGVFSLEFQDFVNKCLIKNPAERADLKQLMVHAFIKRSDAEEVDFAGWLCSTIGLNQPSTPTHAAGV

Row | IC50 (Mek1) [nM] | IC50 [1] [nM] | IC50 (M14 cell line (Melanoma)) [nM] | SMILES | Body weight ([2]; female rats) | Mortality ([2]; male and female rats, escalating 5, 5, 10, 20, 40, 80, 160, 320 mg/kg over 8 days) | Body weight ([2]; male rats)
1 | < 1000 | < 500 | < 500 | Cn1c(Nc2ccc(I)cc2F)c(C(=O)NOCCO)c2ncccc2c1=O [Example 1, 7-(2-fluoro-4-iodophenylamino)-N-(2-hydroxyethoxy)-6-methyl-5-oxo-5,6-dihydro-1,6-naphthyridine-8-carboxamide] | – | – | –
2 | < 10000 | < 50000 | < 50000 | Cn1c(Nc2ccc(I)cc2F)c(-c2nnc(N)o2)c2ncccc2c1=O [Example 2, 8-(5-amino-1,3,4-oxadiazol-2-yl)-7-(2-fluoro-4-iodophenylamino)-6-methyl-1,6-naphthyridin-5(6H)-one] | – | – | –
3 | < 5000 | < 50 | < 500 | Cn1c(Nc2ccc(I)cc2F)c(C(N)=O)c2c(c1=O)CCC2 [Example 4, 3-(2-fluoro-4-iodophenylamino)-2-methyl-1-oxo-2,5,6,7-tetrahydro-1H-cyclopenta[c]pyridine-4-carboxamide] | – | – | –
4 | < 500 | < 5 | < 50 | C[C@H](O)CONC(=O)c1c2c(c(=O)n(C)c1Nc1ccc(I)cc1F)CCC2 [Example 5, (S)-3-(2-fluoro-4-iodophenylamino)-N-(2-hydroxypropoxy)-2-methyl-1-oxo-2,5,6,7-tetrahydro-1H-cyclopenta[c]pyridine-4-carboxamide] | – | – | –
5 | < 1000 | < 10 | < 100 | C[C@@H](O)CONC(=O)c1c2c(c(=O)n(C)c1Nc1ccc(I)cc1F)CCC2 [Example 6, (R)-3-(2-fluoro-4-iodophenylamino)-N-(2-hydroxypropoxy)-2-methyl-1-oxo-2,5,6,7-tetrahydro-1H-cyclopenta[c]pyridine-4-carboxamide] | – | – | –
6 | < 5000 | < 5 | < 500 | Cn1c(Nc2ccc(I)cc2F)c(C(=O)NOCC(C)(C)O)c2c(c1=O)CCC2 [Example 7, 3-(2-fluoro-4-iodophenylamino)-N-(2-hydroxy-2-methylpropoxy)-2-methyl-1-oxo-2,5,6,7-tetrahydro-1H-cyclopenta[c]pyridine-4-carboxamide] | – | – | –
7 | < 500 | < 5 | < 50 | Cn1c(Nc2ccc(I)cc2F)c(C(=O)NOCC(O)CO)c2c(c1=O)CCC2 (centres unmarked) [Example 8, N-(2,3-dihydroxypropoxy)-3-(2-fluoro-4-iodophenylamino)-2-methyl-1-oxo-2,5,6,7-tetrahydro-1H-cyclopenta[c]pyridine-4-carboxamide] | – | – | –
8 | < 5000 | < 50 | < 1000 | Cn1c(Nc2ccc(I)cc2F)c(-c2nnc(N)o2)c2c(c1=O)CCC2 [Example 9, 4-(5-amino-1,3,4-oxadiazol-2-yl)-3-(2-fluoro-4-iodophenylamino)-2-methyl-2,5,6,7-tetrahydro-1H-cyclopenta[c]pyridin-1-one] | – | – | –
9 | – | < 50 | < 100 | Cn1c(Nc2ccc(I)cc2F)c(C(=O)NOCCO)c2c(c1=O)CC(C)(C)C2 [Example 10, 3-(2-fluoro-4-iodophenylamino)-N-(2-hydroxyethoxy)-2,6,6-trimethyl-1-oxo-2,5,6,7-tetrahydro-1H-cyclopenta[c]pyridine-4-carboxamide] | – | – | –
10 | < 500 | < 5 | < 50 | Cn1c(Nc2ccc(I)cc2Cl)c(C(=O)NOCCO)c2c(c1=O)CCC2 [Example 11, 3-(2-chloro-4-iodophenylamino)-N-(2-hydroxyethoxy)-2-methyl-1-oxo-2,5,6,7-tetra hydro-1H-cyclopenta[c]pyridine-4-carboxamide] | – | – | –

Row | SMILES | IC50 (Mek1) [nM] | IC50 [1] [nM] | IC50 (M14 cell line (Melanoma)) [nM] | Body weight ([2]; female rats) | Mortality ([2]; male and female rats, escalating 5, 5, 10, 20, 40, 80, 160, 320 mg/kg over 8 days) | Body weight ([2]; male rats)
11 | Cn1c(Nc2ccc(I)cc2F)c(C(=O)NOCCO)c2c(c1=O)CCC2 [Example 3, 3-(2-fluoro-4-iodophenylamino)-N-(2-hydroxyethoxy)-2-methyl-1-oxo-2,5,6,7-tetrahydro-1H-cyclopenta[c]pyridine-4-carboxamide] | < 500 | < 5 | < 10 | decreased after 6 days | No mortality was observed | decreased at day 6 and day 8
